In publication PMC7269146, “Jingzhaotoxin-X, a gating modifier of Kv4.2 and Kv4.3 potassium channels purified from the venom of the Chinese tarantula Chilobrachys jingzhao” (The Journal of Venomous Animals and Toxins Including …, 2020):
Where a SMILES comes first, the peptide text is derived from it. Bridges are numbered along the chain shown (N, C = ends).

Columns and labels:
Kv4.2 = biological target: T1, Kv4.2 (Rattus norvegicus, UniProt Q63881); assay: whole-cell patch-clamp, Kv4.2 in HEK293t cells, concentration-response and time course; assay type: cell-based
T1 construct: expressed in transfected cells; host or cells: HEK293t
T1 sequence (Q63881 1-630): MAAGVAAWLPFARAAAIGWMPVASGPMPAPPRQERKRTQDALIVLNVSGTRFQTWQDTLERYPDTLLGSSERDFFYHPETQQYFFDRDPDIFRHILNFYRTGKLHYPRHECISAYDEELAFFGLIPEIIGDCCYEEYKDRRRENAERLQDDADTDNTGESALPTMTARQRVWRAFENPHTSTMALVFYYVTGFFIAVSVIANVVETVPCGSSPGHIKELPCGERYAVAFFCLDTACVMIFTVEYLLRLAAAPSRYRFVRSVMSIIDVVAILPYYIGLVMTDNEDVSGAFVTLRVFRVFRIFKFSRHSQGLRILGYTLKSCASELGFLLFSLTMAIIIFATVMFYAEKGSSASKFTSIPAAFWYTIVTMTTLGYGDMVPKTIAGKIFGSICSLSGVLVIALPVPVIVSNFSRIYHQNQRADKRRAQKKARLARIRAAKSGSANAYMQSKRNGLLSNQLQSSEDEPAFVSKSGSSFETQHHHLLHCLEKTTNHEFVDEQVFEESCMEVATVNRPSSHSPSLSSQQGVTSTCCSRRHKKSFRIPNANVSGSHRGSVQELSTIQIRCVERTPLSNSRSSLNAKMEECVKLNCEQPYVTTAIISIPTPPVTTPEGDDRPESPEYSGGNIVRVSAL
Description: Rat cDNA genes encoding Kv4.2 (Accession: NM_031730.2) and Kv4.3 (Accession: AB003587.1) were subcloned to vector pcDNA3.1. In addition, human cDNA genes encoding Nav1.7 (Accession: DQ857292.1) and Nav1.5 (Accession: AB158469.2) were subcloned to vectors pcDNA3.1-mod and pcDNA3.1, separately. Then, Kv4.2, Kv4.3, Nav1.5 and Nav1.7 constructs were transiently transfected into the human embryonic kidney 293t (HEK293t) cells using lipofectamine 2000 (Invitrogen, USA) in accordance with manufacturer protocols. Thereafter, HEK293 cells were inoculated within Dulbecco’s modified Eagle’s medium (DMEM) containing 10% fetal bovine serum (FBS) at 5% CO2 and 37°C. The Kv4.3 channel and the Kv4.2 counterpart were then transfected in the absence of β subunit. Subsequently, cells were incubated with a DNA-lipofectamine mixture (one reporter plasmid for green fluorescence protein and channel constructs) for 4-6 h, and were washed with the fresh medium.
An EPC-10 patch-clamp amplifier (HEKA, Germany) was employed to record the potassium currents at the configuration of whole-cell patch-clamp under an ambient temperature of 22-25°C. The resistance was 2.0-3.0 MΩ when the recording pipette contained a full volume of internal solution (supplemented with 140 mM KCl, 10 mM HEPES, 2.5 mM MgCl2, 5 mM ATP and 11 mM EGTA). KOH was utilized to adjust the pH to 7.2, while sucrose was employed to adjust the osmolarity to 310 mOsm/L. The culture medium was replaced with an external solution containing 150 mM NaCl, 2.5 mM CaCl2, 10 mM HEPES, 2 mM MgCl2, 5 mM KCl, and 10 mM D-glucose. Similarly, sucrose and NaOH were applied to adjust the osmolarity to 330 mOsm/L and pH to 7.4. […] The series resistance was maintained at about 5 MΩ, with 65-70% compensation. Finally, the leakage currents and linear capacitance were subtracted digitally according to the P/4 protocol. […]
On-rates were determined by fitting time course data with a single exponential decay function (2): y = Ae^-kx + C, where x is the time, A is the normalized current value before the application of toxin (usually 1.0), and C is the final normalized current value following the block by the toxin. The on-rate (τon) was determined from the inverse of the rate constant k.
Off-rates were determined by fitting time course data with a double exponential association function (3): y = A(1-e^-kx) + B(1-e^-fx) + C, where x is the time, A or B is the normalized current value after washout of the toxin (usually 1.0 if complete washout occurred), and C is the normalized current value before the washout of the toxin. The off-rate (τoff) was determined from the inverse of the rate constant k or f.

LVA Cav channels = assay: whole-cell voltage-clamp, LVA Cav currents of rat DRG neurons; assay type: cell-based; details: 10 μM, n = 3

## CC(C)C[C@@H]1NC(=O)[C@H](CCCCN)NC(=O)[C@H](Cc2ccc(O)cc2)NC(=O)[C@@H]2CSSC[C@@H]3NC(=O)[C@H](Cc4ccc(O)cc4)NC(=O)[C@H](Cc4ccccc4)NC(=O)CNC(=O)[C@H](C)NC(=O)[C@H](CSSC[C@H](NC(=O)[C@@H](N)CC(C)C)C(=O)N[C@@H](CO)C(=O)N[C@@H](CCCNC(=N)N)C(=O)N[C@@H](CCC(=O)O)C(=O)NCC(=O)N[C@@H](CCC(=O)O)C(=O)N[C@@H](Cc4ccccc4)C(=O)N2)NC(=O)[C@H](CSSC[C@@H](C(=O)N[C@@H](Cc2ccc(O)cc2)C(=O)N[C@@H](CCCNC(=N)N)C(=O)N[C@@H](CC(N)=O)C(=O)O)NC(=O)[C@H](Cc2c[nH]cn2)NC(=O)[C@H](CC(C)C)NC(=O)[C@H](C(C)C)NC(=O)[C@H](Cc2ccccc2)NC(=O)[C@H](C)NC(=O)[C@H](CCCCN)NC3=O)NC(=O)[C@H](CCCCN)NC(=O)[C@H](CCCNC(=N)N)NC1=O [JZTX-X, Jingzhaotoxin-X] (H-LCSREGEFCYKLRKCCAGFYCKAFVLHCYRN-OH; disulfide 2-16, 9-21, 15-28; N-terminus assumed)
Kv4.2; -80 mV, no pulse during first ~100 s of treatment with 200 nM or 500 nM (order Kv4.2, Kv4.3), same as with pulses at 5 s intervals, n = 5
  inhibition of Kv4.2 at resting potential without pulses: approximately 95%
Kv4.2; HEK293t cells, 1 nM-10 μM, 300-ms step to +20 mV from -80 mV, 22-25°C, pH 7.4, Hill equation fit, n = 7, read-out: IC50 for Kv4.2 channels
  IC50: 0.068 µM
Kv4.2; HEK293t cells, +20 mV from -80 mV, n = 7
  Hill Coefficient, Kv4.2: 0.91
Kv4.2; in 3 min following rinsing, high JZTX-X dose, HEK293t cells, n = 6
  reversal of Kv4.2 inhibition after rinsing: > 95%
LVA Cav channels
  inhibition of LVA Cav current: less than 5%
